# Legend:
# [1] = molecular target: T1, OATP1B3 (Homo sapiens, UniProt Q9NPD5); test: In vitro drug-drug interaction studies: OATP1B3 transporter inhibition; format: in vitro ADME; details: based upon in vitro studies
# T1 sequence (Q9NPD5 1-702): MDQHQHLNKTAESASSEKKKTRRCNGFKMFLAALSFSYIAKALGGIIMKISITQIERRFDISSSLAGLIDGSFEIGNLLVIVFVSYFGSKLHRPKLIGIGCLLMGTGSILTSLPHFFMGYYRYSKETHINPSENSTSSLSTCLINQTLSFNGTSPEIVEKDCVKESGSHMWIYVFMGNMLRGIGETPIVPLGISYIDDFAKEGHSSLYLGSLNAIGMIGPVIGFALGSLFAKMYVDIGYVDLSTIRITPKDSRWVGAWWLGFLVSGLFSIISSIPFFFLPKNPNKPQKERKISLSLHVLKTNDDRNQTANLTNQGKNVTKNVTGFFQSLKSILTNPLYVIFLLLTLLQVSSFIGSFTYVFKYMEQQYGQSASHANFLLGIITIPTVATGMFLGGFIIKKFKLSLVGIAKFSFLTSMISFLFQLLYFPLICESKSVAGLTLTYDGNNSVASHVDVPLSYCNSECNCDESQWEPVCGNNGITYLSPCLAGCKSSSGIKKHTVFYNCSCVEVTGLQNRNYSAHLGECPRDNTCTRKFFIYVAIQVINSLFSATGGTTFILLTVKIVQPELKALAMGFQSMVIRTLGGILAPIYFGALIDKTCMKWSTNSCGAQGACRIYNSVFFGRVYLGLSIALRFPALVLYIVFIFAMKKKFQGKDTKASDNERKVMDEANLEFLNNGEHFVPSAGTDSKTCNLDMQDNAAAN
# [2] = system: CYP3A5; test: In vitro drug-drug interaction studies: CYP3A5 induction; format: in vitro ADME; details: based upon in vitro studies
# [3] = system: rats; test: Rat embryofetal development study; format: in vivo
# [4] = Rat embryofetal development study; format: in vivo; details: female, rat, in vivo, po; plasma toxicokinetics on Gestational Day 17, 1000 mg/kg/day; read-out: AUC0-24 at rat EFD NOEL
# [5] = Phase 1 open-label single-dose fixed-sequence study: solid dispersion oral suspension vs crystalline freebase tablet, healthy participants; format: in vivo, human; details: amorphous vs corresponding crystalline preparation
# Text: Each participant received both formulations in 2 separate dosing periods.
# The median tmax was longer for the tablet compared with the oral suspension. The geometric mean t1/2 was similar between formulations. […] Between-participant CV for AUC (0-tlast), AUC (0-∞), and Cmax was higher for the tablet compared with the oral suspension.
# [6] = system: CYP3A; test: Preliminary in vitro CYP3A induction data; format: in vitro ADME
# Text: Investigators should be aware of participants' concomitant use of CYP3A substrates.
# [7] = molecular target: T2, CYP2C8 (Homo sapiens, UniProt P10632); test: In vitro drug-drug interaction studies: CYP2C8 inhibition; format: in vitro ADME; details: based upon in vitro studies
# T2 sequence (P10632 1-490): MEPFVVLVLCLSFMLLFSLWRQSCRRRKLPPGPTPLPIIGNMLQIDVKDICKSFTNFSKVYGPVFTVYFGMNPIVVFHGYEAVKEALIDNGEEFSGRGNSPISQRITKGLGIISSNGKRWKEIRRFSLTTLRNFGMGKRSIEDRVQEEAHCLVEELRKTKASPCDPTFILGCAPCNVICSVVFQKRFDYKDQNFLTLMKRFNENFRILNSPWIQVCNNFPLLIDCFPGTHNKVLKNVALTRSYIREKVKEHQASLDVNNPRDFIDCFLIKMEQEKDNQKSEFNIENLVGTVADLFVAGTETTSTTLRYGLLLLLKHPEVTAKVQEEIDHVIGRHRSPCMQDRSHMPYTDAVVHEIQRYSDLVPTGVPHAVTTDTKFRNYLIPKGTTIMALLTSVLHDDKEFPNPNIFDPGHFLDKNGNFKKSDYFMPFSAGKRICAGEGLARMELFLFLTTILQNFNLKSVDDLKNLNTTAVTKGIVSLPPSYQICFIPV
# [8] = molecular target: CYP2D6 (Homo sapiens, UniProt P10635); test: In vitro drug-drug interaction studies: CYP2D6 inhibition; format: in vitro ADME; details: based upon in vitro studies
# [9] = AUC in animals/(predicted) AUC in humans
# Chain of CYP2D6 (P10635 whole entry): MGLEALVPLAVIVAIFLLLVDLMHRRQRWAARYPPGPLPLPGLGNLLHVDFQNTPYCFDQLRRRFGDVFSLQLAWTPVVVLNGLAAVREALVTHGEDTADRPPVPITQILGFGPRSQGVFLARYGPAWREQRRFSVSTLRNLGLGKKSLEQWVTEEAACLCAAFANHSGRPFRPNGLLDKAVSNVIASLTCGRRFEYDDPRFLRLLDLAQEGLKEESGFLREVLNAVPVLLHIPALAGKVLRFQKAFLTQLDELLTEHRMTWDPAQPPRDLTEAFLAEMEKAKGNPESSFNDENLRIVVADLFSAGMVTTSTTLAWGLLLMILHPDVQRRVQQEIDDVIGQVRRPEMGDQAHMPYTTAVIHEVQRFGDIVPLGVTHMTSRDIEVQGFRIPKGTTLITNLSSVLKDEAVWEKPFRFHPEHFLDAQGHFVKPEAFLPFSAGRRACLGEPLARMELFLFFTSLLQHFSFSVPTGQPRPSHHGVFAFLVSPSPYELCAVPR
compound,measurement,setting,value
"CN1C(=O)[C@@H](NC(=O)c2n[nH]c(Cc3ccccc3)n2)COc2ccc(C#CC(C)(C)O)cc21 [Compound I, (S)-5-benzyl-N-(7-(3-hydroxy-3-methylbut-1-yn-1-yl)-5-methyl-4-oxo-2,3,4,5-tetrahydrobenzo[b][1,4]oxazepin-3-yl)-1H-1,2,4-triazole-3-carboxamide]",inhibition of substrates of OATP1B3 transporter,[1],may also inhibit
same,induction of CYP3A5,[2],may induce
same,"Margin of Safety, rat EFD NOEL vs human 50 mg",[3]; [9],70 X
same,"Margin of Safety, rat EFD NOEL vs human 125 mg",[3]; [9],28 X
same,"developmental and reproductive toxicology outcome, rats",[3]; concerns for women of childbearing potential,did not reveal any concerns
same,Rat EFD NOEL dose,[3]; rat embryofetal development study,1000 mg/kg/day
same,AUC(0-t),[4],1120 µg·h/mL
same,"bioavailability, amorphous state (solid dispersion) over crystalline form",[5],significantly improved
same,induction of CYP3A,[6],weak inducer
same,inhibition of drugs metabolized by CYP2C8,[7],may inhibit
same,inhibition of drugs metabolized by CYP2D6,[8],may inhibit

# — patent US20250000872A1, “FORMULATIONS AND DOSING REGIMENS FOR RIP1 KINASE INHIBITORS FOR TREATING AUTOIMMUNE AND INFLAMMATORY DISEASES” (Eli Lilly and Company, priority 2023, published 2025)
